# From paper PMC3726668, “A Characterization of the Manduca sexta Serotonin Receptors in the Context of Olfactory Neuromodulation” (PLoS ONE, 2013)
# Assays:
# Assay type in all cases: cell-based
# Ms5HT1B receptor [1] = target: T1, Ms5HT1B receptor (Manduca sexta, UniProt Q0GMY1); experiment: two-electrode voltage clamp, Xenopus oocytes, endogenous chloride current; details: for activity at 3 µM: read-out: 5HT1B receptor
# T1 construct: gene 5HT1B
# T1 sequence (Q0GMY1 1-448): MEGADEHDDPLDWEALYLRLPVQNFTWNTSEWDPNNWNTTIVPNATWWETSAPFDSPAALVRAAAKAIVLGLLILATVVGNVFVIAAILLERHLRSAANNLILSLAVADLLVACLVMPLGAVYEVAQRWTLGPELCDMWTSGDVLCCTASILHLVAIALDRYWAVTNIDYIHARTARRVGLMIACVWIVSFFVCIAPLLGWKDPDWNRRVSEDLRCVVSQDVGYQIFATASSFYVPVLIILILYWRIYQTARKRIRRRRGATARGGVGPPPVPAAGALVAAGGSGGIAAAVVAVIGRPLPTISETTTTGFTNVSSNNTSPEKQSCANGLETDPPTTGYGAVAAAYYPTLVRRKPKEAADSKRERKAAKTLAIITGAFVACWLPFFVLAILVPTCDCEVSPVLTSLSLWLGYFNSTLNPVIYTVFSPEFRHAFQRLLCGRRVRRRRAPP
# Excerpt: two-electrode voltage clamp, Xenopus oocytes, endogenous chloride current on Ms5HT1B receptor
# Ms5HT2 receptor = target: T2, Ms5HT2 receptor (Manduca sexta, UniProt S4USL2); experiment: two-electrode voltage clamp, Xenopus oocytes, endogenous calcium-dependent chloride current
# T2 construct: gene 5HT2
# Ms5HT7 receptor [2] = target: T3, Ms5HT7 receptor (Manduca sexta, UniProt S4UQW2); experiment: as above
# T3 construct: gene 5HT7; Xenopus oocytes (pBS-MXT, receptor cRNA alone)
# T3 sequence (S4UQW2 38-563): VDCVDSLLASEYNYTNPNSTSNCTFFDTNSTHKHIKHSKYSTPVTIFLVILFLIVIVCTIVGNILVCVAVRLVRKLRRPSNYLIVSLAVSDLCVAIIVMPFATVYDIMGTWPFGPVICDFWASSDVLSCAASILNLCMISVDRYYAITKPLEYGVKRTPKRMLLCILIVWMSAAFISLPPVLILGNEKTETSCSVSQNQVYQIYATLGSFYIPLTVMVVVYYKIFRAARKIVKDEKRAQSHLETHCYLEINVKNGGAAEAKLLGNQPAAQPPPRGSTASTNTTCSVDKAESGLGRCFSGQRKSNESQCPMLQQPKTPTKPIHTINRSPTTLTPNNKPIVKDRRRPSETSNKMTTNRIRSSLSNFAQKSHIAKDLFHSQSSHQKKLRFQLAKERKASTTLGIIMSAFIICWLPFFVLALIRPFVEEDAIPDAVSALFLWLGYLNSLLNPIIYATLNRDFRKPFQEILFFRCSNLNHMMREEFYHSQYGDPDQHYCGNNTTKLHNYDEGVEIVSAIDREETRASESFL
# Ms5HT1B receptor [3] = target: T1, Ms5HT1B receptor; experiment: as above
# Ms5HT7 receptor [4] = target: T3, Ms5HT7 receptor; experiment: two-electrode voltage clamp, Xenopus oocytes, endogenous chloride current; details: 3 µM; partial agonist; relative to 1 µM 5-HT
# Excerpt: two-electrode voltage clamp, Xenopus oocytes, endogenous chloride current on Ms5HT7 receptor
# Ms5HT1A receptor = target: T4, Ms5HT1A receptor (Manduca sexta, UniProt Q0GMY2); experiment: two-electrode voltage clamp, Xenopus oocytes, CFTR current; details: read-out: 5HT1A receptor
# T4 construct: gene 5HT1A; about 51 kDa
# T4 sequence (Q0GMY2 1-463): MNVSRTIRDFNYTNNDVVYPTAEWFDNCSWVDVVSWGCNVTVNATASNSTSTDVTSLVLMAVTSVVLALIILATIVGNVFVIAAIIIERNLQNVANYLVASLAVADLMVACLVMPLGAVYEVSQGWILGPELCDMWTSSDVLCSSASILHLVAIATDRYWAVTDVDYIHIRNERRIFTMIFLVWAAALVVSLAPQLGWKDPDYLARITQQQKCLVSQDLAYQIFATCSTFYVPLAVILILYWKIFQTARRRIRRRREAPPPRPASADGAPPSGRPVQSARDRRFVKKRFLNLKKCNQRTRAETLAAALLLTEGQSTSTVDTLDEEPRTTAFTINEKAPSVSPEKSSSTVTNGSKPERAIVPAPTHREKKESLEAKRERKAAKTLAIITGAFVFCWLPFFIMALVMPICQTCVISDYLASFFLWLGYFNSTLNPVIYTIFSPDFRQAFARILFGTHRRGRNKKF
# Excerpt: two-electrode voltage clamp, Xenopus oocytes, CFTR current on Ms5HT1A receptor
# T2 sequence (S4USL2 1-635): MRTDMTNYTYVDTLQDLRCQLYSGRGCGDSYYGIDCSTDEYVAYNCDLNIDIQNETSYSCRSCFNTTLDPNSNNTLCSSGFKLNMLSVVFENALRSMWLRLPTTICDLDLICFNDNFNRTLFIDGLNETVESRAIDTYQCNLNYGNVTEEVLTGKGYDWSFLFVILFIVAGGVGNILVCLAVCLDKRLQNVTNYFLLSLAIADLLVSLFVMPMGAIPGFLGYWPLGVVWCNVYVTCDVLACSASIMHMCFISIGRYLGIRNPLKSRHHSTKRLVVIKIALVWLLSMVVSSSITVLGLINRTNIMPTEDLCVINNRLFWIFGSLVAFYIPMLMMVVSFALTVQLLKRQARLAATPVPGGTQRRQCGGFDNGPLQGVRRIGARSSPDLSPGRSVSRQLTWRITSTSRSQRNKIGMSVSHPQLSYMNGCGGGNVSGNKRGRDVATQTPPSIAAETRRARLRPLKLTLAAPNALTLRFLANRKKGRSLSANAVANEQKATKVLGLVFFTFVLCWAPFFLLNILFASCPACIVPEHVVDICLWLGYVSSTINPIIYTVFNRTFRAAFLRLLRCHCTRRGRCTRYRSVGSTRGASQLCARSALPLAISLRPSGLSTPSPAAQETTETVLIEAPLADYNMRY
structure (smiles),measurement,setting,value
CSc1ccc2c(c1)C(N1CCN(C)CC1)Cc1ccccc1S2 (centres unmarked) [methiothepin],activity at 3 µM,Ms5HT1B receptor [1],36.4 ± 12.6%
COc1ccc2[nH]cc(CCN)c2c1 [5-methoxytryptamine],5HT1B receptor,"Ms5HT1B receptor [1]; agonist, relative to 1 µM 5-HT",7.2 ± 1.4%
NCCc1c[nH]c2ccc(O)cc12 [serotonin],EC50,Ms5HT2 receptor,25.4 nM
same,EC50,Ms5HT7 receptor [2],10.5 nM
same,EC50,Ms5HT1B receptor [3],57 nM
CC[C@@H](CO)NC(=O)[C@@H]1C=C2c3cccc4c3c(cn4C)C[C@H]2N(C)C1 [methysergide],Ms5HT7,Ms5HT7 receptor [4],49.5 ± 12%
COc1ccccc1N1CCN(CCN(C(=O)C2CCCCC2)c2ccccn2)CC1 [WAY100635],activity at 3 µM,Ms5HT1B receptor [1],38.2 ± 3.3%
same,activity at 3 µM,Ms5HT1A receptor,76.8 ± 15.8%
